Source: US12370235B2, “Synthetic, non-natural antimicrobial peptides inspired by Staphylococcus auricularis delta toxin” (University of Saskatchewan, priority 2021, dated 2025)
In brackets after ≈: the same amount, converted by molar mass. Ends that are not written are not given here. Peptide text beside a SMILES is read from it. * marks the point of attachment. For = O=C*

Tests used:
[1] = system: Mannheimia haemolytica ATCC 33393; assay: MIC, broth dilution; format: cell-based; conditions: Table 11; highest concentration 25 μg/mL
How it was run: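 Peptides (95% purity) in 2-fold dilution series were mixed with M. haemolytica diluted to OD 6×10^−4 in cation-adjusted Mueller Hinton broth and incubated standing overnight at 37 °C. MIC was the lowest concentration with no visible growth.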

C. albicans MYA-2876 = assay: MIC, YPD broth; format: cell-based, Candida albicans; conditions: Table 8
How it was run: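 Minimum inhibitory concentrations against Candida albicans were determined in YPD broth (10 g/L yeast extract, 20 g/L peptone, 20 g/L dextrose) using peptides of 95% purity. A 180 μl volume of diluted yeast was combined with 20 μl of peptide in a 2-fold dilution series in 96-well plates, with sterile water as control, then incubated standing overnight at 37° C.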

[2] = system: Candida duobushaemulonii AR 392; assay: MIC, YPD broth, CDC and FDA AR Candida isolate panel; format: cell-based; conditions: Table 9 top part: titrations from 1.56 to 100 μg/mL
How it was run: (§1)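 Growth inhibition by peptides (95% pure) is scored after standing overnight incubation at 37° C. Cells at an optical density of […] are exposed to a doubling dilution series of peptide.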

Kodamae ohmeri AR 396 = assay: as above; format: cell-based; conditions: Table 9 top part: titrations from 1.56 to 100 μg/mL
How it was run: as §1

[3] = Circular dichroism spectroscopy; format: physicochemical; conditions: CD, 50% (v/v) TFE
How it was run: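 Secondary structure of peptides dissolved in water at 0.3–0.5 mg/mL was assessed by CD. Spectra were recorded from 180 to 260 nm at room temperature in a 0.1 cm quartz cuvette; water and 50% (v/v) TFE conditions were compared.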

SspA protease = SspA protease (Staphylococcus aureus, UniProt P0C1U8); assay: SspA protease treatment, LC/MS analysis; format: in vitro ADME; conditions: in vitro, 37° C., ˜5 hours
Method: SspA protease treatment. SspA protease was resuspended at 2 mg/mL in 100 mM HEPES, pH 7.8. Proteolysis was achieved by incubation of 50 μg PSMs at 37° C. for ˜5 hours with 0.2 mg/mL SspA. The antimicrobial activity of the proteolytic products were assayed by spotting a 5 μL (˜45 μg) from each treated peptide on each test microorganism as described above.
HPLC/MS analysis. High performance liquid chromatography coupled to mass spectrometry (HPLC-MS) was conducted to assess the proteolytic cleavage of synthetic PSMs by the SspA protease, as described above. Both treated samples and untreated controls were incubated at 37° C. for 5 hours, and then frozen until HPLC/MS analysis. An Agilent Infinity II 1260 HPLC outfitted with a Phenomenex Lune C5 column (4.6×150 mm, 5 μm) was used to separate the peptide fragments using a binary solvent system consisting of solvent A (water, 0.05% formic acid) and solvent B (acetonitrile, 0.05% formic acid) operating at 0.7 mL/min. A 5 μl volume (˜4.5 μg) of each sample was injected at 10% solvent B, followed by a two-step gradient elution from 10 to 50% solvent B in 30 minutes, then 50 to 100% B in 10 minutes. The HPLC was coupled to an Advion CMS(L) single quadrupole mass detector through an electrospray ionization source. A line splitter from the HPLC to ESI source was used to deliver sample to the mass detector at 0.3 mL/min. An Advion expression-L CMS detector was used at low temperature and fragmentation settings: capillary temperature: 135° C., capillary voltage 120 V, source voltage offset 20 V, source gas temperature 135° C. and ESI voltage 3500 V. The range of ions detected was between 100 and 2,000 m/z.

HeLa cells = format: cell-based; conditions: 24 h, alamarBlue
Method: Peptide cytotoxicity. In vitro cytotoxicity was measured using the 3D EpiDerm skin tissues and HeLa Cells using a fluorescent reporter of cell viability, alamarBlue (ThermoFisher Scientific). 3D EpiDerm skin tissues (MatTek EPI-200-AFAB) were transferred to a 12 well plate containing 600 μL of AFAB-assay medium supplemented with 10% v/v alamarBlue. […] HeLa cells were seeded in a 96-well plate (2×10^4 cells/per well) and incubated overnight at 37° C. and 5% CO2 in a humidified incubator to prepare wells at ˜50% confluency of adherent cells. After the incubation, spent DMEM was removed and cells were washed with PBS. alamarBlue-containing medium was prepared by mixing Phenol Red-free DMEM with alamarBlue solution at a 9:1 ratio and a 180 μl volume was added to each well. Cells were treated with peptides varying from 3.25 to 200 μg/mL and then incubated for 24 h. The fluorescence intensities of treated cultures were normalized to values measured for an untreated control group. After the 24 h incubation period, alamarBlue fluorescence was measured at 590 nm upon excitation at 560 nm using Varioskan Lux plate reader (Thermo Scientific) plate reader.

M. luteus ATCC 4698 = assay: MIC, broth dilution; format: cell-based, Micrococcus luteus; conditions: Table 4; liquid broth
Method: MIC determination. MICs were measured using peptides with 95% purity. For bacterial studies, cation-adjusted Mueller Hinton (MH) broth was used as the growth medium whereas Yeast Peptone Dextrose (YPD; 10 g/L yeast extract, 20 g/L peptone, 20 g/L dextrose) was used for Candida spp. and other yeast. Microorganisms were diluted to an optical density of […] in MH or YPD broth and a 180 μl volume was mixed with 20 μl of peptide arrayed as a 2-fold dilution series in a flat-bottom 96-well microtitre plate. A control was performed using 20 μl of sterile water. Plates were incubated as standing cultures overnight at 37° C.
Determination of minimum inhibitory concentrations. The MICs were measured for bioactive peptides identified from the initial screen. For bacterial studies, cation-adjusted Mueller Hinton (MH) broth was used as the growth medium whereas YPD was used for C. albicans. Bacterial cultures were diluted to a OD value of 6×10^−4 in MH broth and a 180 μl volume was mixed with 20 μl of peptide arrayed as 2-fold dilution series in a 96-well plate. For the positive control, 20 μl of sterile water was used. Plates were incubated as standing cultures overnight at 37° C. The lowest peptide concentration that resulted no observed microbial growth after an overnight treatment was defined as the MIC.

[4] = system: Candida lusitaniae AR 398; assay: MIC, YPD broth, CDC and FDA AR Candida isolate panel; format: cell-based; conditions: Table 9 top part: titrations from 1.56 to 100 μg/mL
How it was run: as §1

[5] = system: Saccharomyces cerevisiae AR 400; assay: as above; format: cell-based; conditions: Table 9 top part: titrations from 1.56 to 100 μg/mL
How it was run: as §1

[6] = system: Saccharomyces cerevisiae AR 399; assay: as above; format: cell-based; conditions: Table 9 top part: titrations from 1.56 to 100 μg/mL
How it was run: as §1

Candida krusei AR 397 = assay: as above; format: cell-based; conditions: Table 9 top part: titrations from 1.56 to 100 μg/mL
How it was run: as §1

[7] = system: S. aureus ATCC BAA-2094 (MRSA SCCmec type V); assay: MIC, broth dilution; format: cell-based, Staphylococcus aureus; conditions: Table 5; STIP3 variants, highest concentration 100 μg/mL
How it was run: (§2)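 Peptides of 95% purity tested as 2-fold dilution series against bacteria diluted to OD 6×10^−4 in cation-adjusted Mueller Hinton broth. Standing cultures incubated overnight at 37° C; MIC is the lowest concentration with no visible growth.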

[8] = system: S. aureus ATCC BAA-2313 (MRSA SCCmec type XI); assay: MIC, broth dilution; format: cell-based, Staphylococcus aureus; conditions: Table 5; STIP3 variants, highest concentration 100 μg/mL
How it was run: as §2

[9] = system: S. aureus ATCC BAA-41 (MRSA SCCmec type II); assay: MIC, broth dilution; format: cell-based, Staphylococcus aureus; conditions: Table 5; STIP3 variants, highest concentration 100 μg/mL
How it was run: as §2

[10] = system: S. aureus ATCC BAA-42 (MRSA SCCmec type VI); assay: MIC, broth dilution; format: cell-based, Staphylococcus aureus; conditions: Table 5; STIP3 variants, highest concentration 100 μg/mL
How it was run: as §2

[11] = system: S. aureus ATCC BAA-44 (MRSA SCCmec type I); assay: MIC, broth dilution; format: cell-based, Staphylococcus aureus; conditions: Table 5; STIP3 variants, highest concentration 100 μg/mL
How it was run: as §2

[12] = system: S. aureus ATCC 33592 (MRSA SCCmec type III); assay: MIC, broth dilution; format: cell-based, Staphylococcus aureus; conditions: Table 5; STIP3 variants, highest concentration 100 μg/mL
How it was run: as §2

S. aureus ATCC 29213 = assay: MIC, broth dilution; format: cell-based, Staphylococcus aureus
How it was run: as §2

Chain of SspA protease (P0C1U8 69-336): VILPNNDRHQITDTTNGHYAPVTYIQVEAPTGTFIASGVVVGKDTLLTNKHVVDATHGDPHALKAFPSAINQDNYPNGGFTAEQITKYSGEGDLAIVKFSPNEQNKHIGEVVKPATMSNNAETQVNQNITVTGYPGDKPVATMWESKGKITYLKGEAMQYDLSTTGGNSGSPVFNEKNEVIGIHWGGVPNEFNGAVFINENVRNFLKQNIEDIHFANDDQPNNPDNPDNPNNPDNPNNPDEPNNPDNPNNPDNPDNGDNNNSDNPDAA

CC[C@H](C)[C@H](NC(=O)[C@H](Cc1c[nH]c2ccccc12)NC(=O)[C@H](CCCCN)NC(=O)[C@@H](NC(=O)[C@H](CC(C)C)NC(=O)CNC(=O)CNC(=O)[C@@H](NC(=O)[C@@H](NC(=O)[C@H](CCC(=O)O)NC(=O)[C@@H](NC(=O)[C@@H](NC(=O)[C@H](CC(=O)O)NC(=O)[C@H](CCCCN)NC(=O)[C@@H](NC(=O)[C@H](CCSC)NC=O)[C@@H](C)O)[C@@H](C)CC)C(C)C)[C@@H](C)O)C(C)C)C(C)C)C(=O)N[C@@H](CC(C)C)C(=O)N[C@@H](CC(=O)O)C(=O)N[C@H](C(=O)N[C@H](C(=O)N[C@@H](CCCCN)C(=O)N[C@@H](CCCCN)C(=O)N[C@@H](Cc1ccccc1)C(=O)N[C@@H](C)C(=O)O)C(C)C)[C@@H](C)O [δ-toxin, reference compound] (For-MTKDIVETVGGLVKWILDTVKKFA-OH)
MIC (μg/mL) M. haemolytica [1]: > (> symbol indicates that no inhibition was observed at the highest concentration of peptide tested: 25 μg/mL) | MIC C. albicans MYA-2876 (C. albicans MYA-2876): > (> symbol indicates that no inhibition was observed at the highest concentration of peptide tested: 100 μg/mL) | MIC (μg/mL) Candida duobushaemulonii AR 392 [2]: > (MIC values reported at the top of the table (above the double line) are based on titrations from 1.56 to 100 μg/mL) | MIC (μg/mL) Kodamae ohmeri AR 396 (Kodamae ohmeri AR 396): > (MIC values reported at the top of the table (above the double line) are based on titrations from 1.56 to 100 μg/mL) | α helicity (%) [3]: 88% | susceptibility to SspA cleavage (SspA protease): formylation protected against proteolysis | IC50, HeLa cell survival (HeLa cells): 230 ± 30 µg/mL (≈ 84.6 µM)

H-MTKDIVETVGGLVKWILDTVKKFA [δ-toxin (df), reference compound]
MIC (μg/mL) M. haemolytica [1]: > (> symbol indicates that no inhibition was observed at the highest concentration of peptide tested: 25 μg/mL) | MIC C. albicans MYA-2876 (C. albicans MYA-2876): 100 µg/mL | MIC (μg/mL) Candida duobushaemulonii AR 392 [2]: > (MIC values reported at the top of the table (above the double line) are based on titrations from 1.56 to 100 μg/mL) | MIC (μg/mL) Kodamae ohmeri AR 396 (Kodamae ohmeri AR 396): > (MIC values reported at the top of the table (above the double line) are based on titrations from 1.56 to 100 μg/mL) | α helicity (%) [3]: 87% | susceptibility to SspA cleavage (SspA protease): susceptible to SspA cleavage in vitro

TVGGLVKWILDTVKKFA [STIP3-1, TVGGLVKWILDTVKKFA]
MIC (μg/mL) M. luteus (M. luteus ATCC 4698): 12.5 µg/mL | MIC C. albicans MYA-2876 (C. albicans MYA-2876): 25 µg/mL | MIC (μg/mL) Candida lusitaniae AR 398 [4]: 100 µg/mL | MIC (μg/mL) Saccharomyces cerevisiae AR 400 [5]: 12.5 µg/mL | MIC (μg/mL) Saccharomyces cerevisiae AR 399 [6]: 50 µg/mL | MIC (μg/mL) Candida krusei AR 397 (Candida krusei AR 397): 25 µg/mL | susceptibility to SspA cleavage (SspA protease): cleave the bioactive peptide into an inactive mixture | MIC S. aureus ATCC BAA 2094 (V) [7]: 100 µg/mL | MIC S. aureus ATCC BAA 2313 (XI) [8]: 100 µg/mL | MIC S. aureus ATCC BAA 41 (II) [9]: 100 µg/mL | MIC S. aureus ATCC BAA 42 (VI) [10]: 100 µg/mL | MIC S. aureus ATCC BAA 44 (I) [11]: 100 µg/mL | MIC S. aureus ATCC 33592 (III) [12]: 100 µg/mL | MIC (μg/mL) S. aureus (S. aureus ATCC 29213; Table 4, liquid broth): 100 µg/mL | MIC S. aureus ATCC 29213 (S. aureus ATCC 29213; Table 5, STIP3 variants, highest concentration 100 μg/mL): 100 µg/mL | IC50, HeLa cell survival (HeLa cells): 200 ± 30 µg/mL
